Experimental data taken from patent US7498445B2, “Thiazole-based nitric oxide donors capable of releasing two or more nitric oxide molecules and uses thereof” (priority 2004, dated 2009).
Entries after “also recorded” stand apart in the source; their conditions may differ.

Key:
[1] = system: c-GMP in slices of thoracic aorta of rats; assay: Cyclic-GMP measurement in aortic rat tissue (radioimmunoassay); format: cell-based; conditions: in words; for levels of cGMP as compared with GTN: isolated rat aorta, FIGS. 25, 27, 33
Method: GTN (10^−6 M) was added to the chamber and, 1 minute after exposure to the drug, rings (usually 3-5) were taken, wrapped with aluminum foil and immediately frozen in liquid nitrogen for storage. Control sample group was treated with the vehicle solution only. At the time of analysis, rings were thawed, blotted over a dry gauzed and weighted. A known weight of tissue was homogenized in 2 ml ice-cold modified Hank's balanced salt solution containing (in gram/liter) NaCl 8; KCl 0.4; glucose 1; KH2PO4 0.06; Na2HPO4 0.047; Phenol red 0.017 and further containing 25 mM EDTA (disodium salt). The homogenate was centrifuged at 4000 g (force units) for 10 minutes at 2-4° C. and the supernatant was thereafter transferred into fresh pre-cooled test tube containing 1 ml of acetonitrile. The tubes were vortex mixed for a few seconds and subsequently centrifuged at 4000 g for 5 minutes at 2-4° C., to remove the precipitated protein. Each supernatant was transferred into a clean test tube and evaporated to dryness under a stream of nitrogen at 55° C. The dry residue was reconstituted with 10 volumes of Tris-EDTA buffer pH 7.5 (0.05 M Tris containing 4 mM EDTA). Aliquots of 100 μl of the reconstituted solution in duplicate were used for c-GMP measurements using Amersham RIA kit, as is described in Haj-Yehia & Benet [Pharmacology, 1995, 273, 1, pp. 94-100]. Standard curves were plotted with six concentrations (0, 0.5, 1, 2, 4 and 8 pmoles of c-GMP per tube).
The NO-tolerance effect of GTN and NO-donor compounds according to the present invention was measured by following the production of c-GMP in slices of thoracic aorta of rats. Thus, the production of c-GMP was measured as described in the methods section above for the reference NO-donor compound GTN, and for the NO-donors of the present invention Pet-2, Pet-3, Pet-7, Pet-8, Pet-10, Pet-12, Pet-24, Pet-59, Pet-147, Pet-149, Pet-152, Pet-154 and Pet-155.

[2] = system: isolated rat aorta; assay: In vitro vasorelaxation of epinephrine-contracted rat aortic rings (CCRC); format: cell-based; conditions: isolated rat aorta pre-treated in vitro with 1 μM epinephrine; for vasorelaxation effect as compared with glyceryltrinitrate: in words
Excerpt: Male Sprague Dawley rats were anaesthetized using intraperitoneal injection of ketamine and xylazine (50 and 10 milligram per kilogram, respectively) and the thoracic aorta, the large upper portion of the descending aorta, starting at the caudal border of the chest bone, was removed thereafter, while carefully removing the paraadventetial tissue surrounding the vessel. Aortae were cut into rings of 4-5 millimeters and mounted onto the tissue path. The path buffer (Krebs-bicrbonate) was constantly gassed with carbogen and maintained at 37° C. The rings were preloaded under 2 g tension and equilibrated for 90 minutes, while refreshing the buffer every 15 minutes. After stabilization, the rings were contracted with epinephrine (1 μM). Cumulative Concentration—Response Curves (CCRC) were measured for the vasorelaxing effect induced by adding various concentrations, ranging from 10^−10 M to 10^−5 M of Pet-2, Pet-3, Pet-7, Pet-8, Pet-12, Pet-24, Pet-43, Pet-59, Pet-147, Pet-152 and Pet-154, and glyceryltrinitrate (GTN), according to the procedure described in Feelich et al., Molecular Pharmacology, 56:243-253 (1999), The vehicle, which was used for this experiment was water:ethanol:propyleneglycol at proportional ratio of 1:1:1.
The vasorelaxing effect of the thiazole-derived NO-donors according to the present invention was measured on slices of thoracic aorta of rats contracted with epinephrine, as described hereinabove.

[3] = system: cyclic-GMP in isolated aorta of rats pre-treated in vivo; assay: Induction of in vivo nitrate tolerance: cGMP in aorta of rats infused for 16 hours; set-up: species or system rat; conditions: rats infused 200 μg/hour for 16 hours, aorta then exposed to 1 μM; in words
Method: For c-GMP levels and tolerance development, the rat's thoracic aorta was isolated after exposure to the tested compound in vivo, and measured as described above in the in vitro assays.
Male Sprague Dawley rats (220 to 250 grams) were housed under constant temperature and humidity conditions. Light was maintained at a 12/12 light dark cycle. Except for 12 hours before the experiment, when food fasting was initiated, all rats had free access to standard rat pellet diet and tap water. The animals were anesthetized by intraperitoneal injection of ketamine and xylazine combination (50 and 10 milligram per kilogram, respectively). […] The catheters were filled with normal saline solution containing 1000 IU/ml of heparin and plugged with a metal pin. Catheters were externalized to the back of the neck region and secured by a polyester felt disk.
After implantation, the rats were individually housed until they regained their preoperative weight and appeared healthy (3 to 4 days post-operation). At this time point (day 0), an osmotic mini-pump (Alza Corp., Palo Alto, Calif.) delivering constant volume (10 μl/hour) of vehicle or drug was connected to one of the intravenous catheters.
For inducing tolerance to the tested NO-donor according to the present invention, the animals received 200 μg/hour of the tested compound for 16 hours (short-term-induced tolerance). […]

[4] = system: anesthetized hypertensive Sprague-Dawley male rats; assay: Hypotensive effects: mean arterial pressure after iv bolus in phenylephrine-treated rats; format: in vivo, rat; conditions: rats pre-treated with phenylephrine, in words
Method: Mean arterial pressure (MAP) was monitored and determined during bolus infusion of Pet-2, Pet-3, Pet-7, Pet-8, Pet-12 and Pet-13. Briefly, polyethylene catheters (PE50) were inserted into the carotid artery and into the jugular vein of anesthetized hypertensive Sprague-Dawley male rats (200-300 grams). A blood pressure recorder was placed within the carotid artery. Phenylephrine (0.1 mg) was then injected and the mean arterial blood pressure (MABP) was monitored continuously until a stable baseline was reached. The hypotensive effects of intravenous (iv) bolus doses (0.1 mg of each tested compound) administered intravenously at the jugular vein in minimal volume of vehicle (0.2 ml per dose) were evaluated. Five minutes were allowed between each dose, during which the maximal decrease in MAP was recorded and a dose-response graph comparing the hypotensive effect of the compounds was constructed.

[5] = system: isolated rat aorta; assay: In vitro induction of tolerance and cross-tolerance: vasorelaxation of pre-exposed rat aortic rings; format: cell-based; conditions: in words; for tolerance induction in vitro: rings pre-treated with epinephrine and then with the same compound (0.44 mM) versus control
Method: Aortic rings were prepared as described hereinabove, and were exposed to 0.44 mM GTN (vehicle was water:ethanol:propyleneglycol at proportional ratio of 1:1:1) for 1 hour before CCRC construction, to thereby induce tolerance to nitroglycerine. At the end of the tolerance induction period, rings were thrice washed with the path buffer (Krebs-bicrbonate) every 15 minutes for the following hour and then CCRC for vasorelaxation on GTN-induced tolerance rings were constructed for GTN (pretreated versus untreated rings, FIG. 15), in order to verify the ability to induce and measure GTN tolerance induction in vitro Attempted induction of tolerance to the NO-donating compounds of the present invention was performed under the same conditions as for GTN. Thus, in an exemplary experiment, rings were exposed to 0.44 mM solution of Pet-3 in the attempt to induce tolerance for Pet-3. CCRC were then measured for the vasorelaxing effect of Pet-3 on a group of rings which were pre-exposed to Pet-3 as to induce tolerance to Pet-3, and for an untreated control group. The above protocol was repeated with Pet-2, Pet-7, Pet-8, Pet-12, Pet-24, Pet-43, Pet-149 and Pet-152.
Cross-tolerance studies were conducted using the same technique described above for measuring vasorelaxation of aortic rings from rats. Two groups of aortic rings samples were pre-treated with GTN, then one group was measured for vasorelaxation by GTN and the second group for vasorelaxation by Pet-12, an exemplary NO-donor according to the present invention. For the opposite cross-tolerance studies, two groups of aortic rings samples were pre-treated with Pet-12, then one group was measured for vasorelaxation by GTN and the second group for vasorelaxation by Pet-12.

Compound	levels of cGMP as compared with GTN [1]	vasorelaxation effect as compared with glyceryltrinitrate [2]	tolerance induction in vitro [5]	also measured
Cc1nc(NC(=O)[C@@H](C)c2ccc(CC(C)C)cc2)sc1CCO[N+](=O)[O-] (stereo in doubt) [Pet-152, 2-(4-Isobutyl-phenyl)-N-[4-methyl-5-(2-nitrooxy-ethyl)-thiazol-2-yl]-propionamide]	increased levels of cGMP	superior vasorelaxation effect	–	–
O=[N+]([O-])OCC(CO[N+](=O)[O-])O[N+](=O)[O-] [GTN, glyceryl trinitrate, reference compound]	–	–	tolerance induced by treatment with GTN	level of cGMP following a repeated treatment in vivo (tolerance induction) [3]: tolerance inducing effect; also recorded: decreased; hypotensive effect on MAP following successive administrations [4]: attenuation in its effect on MAP; c-GMP level following a repeated treatment ([1]; thoracic aorta of rats): significantly reduced
Cc1nc(C)c(CCO[N+](=O)[O-])s1 [Pet-3, 2,4-Dimethyl-5-(2-nitrooxy-ethyl)-thiazole]	increased levels of cGMP	superior vasorelaxation effect	absence of tolerance induction	–
Cc1nc(N(C)C)sc1CCO[N+](=O)[O-] [Pet-7, Dimethyl-[4-methyl-5-(2-nitrooxy-ethyl)-thiazol-2-yl]-amine]	increased levels of cGMP	superior	absence of tolerance induction	vasorelaxation effect, fold higher than glyceryltrinitrate [2]: 10 fold
Cc1nc(-c2ccccc2)sc1CCO[N+](=O)[O-] [Pet-8, 4-Methyl-5-(2-nitrooxy-ethyl)-2-phenyl-thiazole]	increased levels of cGMP	superior vasorelaxation effect	–	–
Cc1nc(N)sc1CCO[N+](=O)[O-] [Pet-10, 4-methyl-5-(2-nitrooxy-ethyl)-thiazole-2-ylamine]	increased levels of cGMP	–	–	–
Cc1nc(-c2cccnc2)sc1CCO[N+](=O)[O-] [Pet-12, 3-[4-Methyl-5-(2-nitrooxy-ethyl)-thiazole-2-yl]-pyridine]	–	–	absence of tolerance induction	level of cGMP following a repeated treatment in vivo (tolerance induction) [3]: absence of tolerance induction; also recorded: lack of tolerance induction; cross-tolerance: vasorelaxation in rings pre-treated with GTN ([5]; rat aortic rings pre-treated with epinephrine and then with GTN): absence of tolerance induction effect; also recorded: no effect; cross-tolerance: vasorelaxation in rings pre-treated with Pet-12 ([5]; rat aortic rings pre-treated with epinephrine and then with Pet-12): absence of tolerance induction effect; also recorded: does not evoke tolerance to itself not to GTN
CNc1cncc(-c2nc(C)c(CCO[N+](=O)[O-])s2)n1 [Pet-24, Methyl-{6-[4-methyl-5-(2-nitrooxy-ethyl)-thiazol-2-yl]-pyrazin-2-yl}-amine]	increased levels of cGMP	–	absence of tolerance induction	–
Cc1nc(Nc2nc(C)c(CCO[N+](=O)[O-])s2)sc1CCO[N+](=O)[O-] [Pet-43, Bis-[4-methyl-5-(2-nitrooxy-ethyl)-thiazol-2-yl]-amine]	–	superior vasorelaxation effect	absence of tolerance induction	–
Cc1nc(-c2ccc(C(F)(F)F)cc2)sc1CCO[N+](=O)[O-] [Pet-59, 4-Methyl-5-(2-nitrooxy-ethyl)-2-(4-trifluoromethyl-phenyl)-thiazole]	increased levels of cGMP	superior vasorelaxation effect	–	–
CCNc1nc(C)c(CCO[N+](=O)[O-])s1 [Pet-147, Ethyl-[4-methyl-5-(2-nitrooxy-ethyl)-thiazol-2-yl]-amine]	increased levels of cGMP	–	–	–
Cc1nc(Nc2cccc3ccccc23)sc1CCO[N+](=O)[O-] [Pet-149, [4-Methyl-5-(2-nitrooxy-ethyl)-thiazol-2-yl]-naphthalen-1-yl-amine]	increased levels of cGMP	superior vasorelaxation effect	absence of tolerance induction	–
Cc1nc(NC(=O)c2cccnc2)sc1CCO[N+](=O)[O-] [Pet-154, N-[4-methyl-5-(2-nitrooxy-ethyl)-thiazol-2-yl]-nicotinamide]	increased levels of cGMP	–	–	–
C=CCNc1nc(C)c(CCO[N+](=O)[O-])s1 [Pet-155, allyl-[4-methyl-5-(2-nitrooxy-ethyl)-thiazol-2-yl]-amine]	increased levels of cGMP	superior vasorelaxation effect	–	–
